Read-outs that look alike come from different tables or passages of the source.
What was measured:
[1] = system: TNF α production by U937 cells; assay: Test on macrophage activity inhibition (antagonist test): LPS antagonistic activity on TNFα production by U937 cells; format: cell-based; conditions: in the presence of 10 ng/ml of LPS, human monocytic U937 cells, 6 hours, TNFα by ELISA, concentration suppressing TNFα to 50% of standard production amount, read-out: IC50(nM), LPS antagonistic activities of the compounds on TNF α production by U937 cells
Description: Test on macrophage activity inhibition (antagonist test).
TNFα is produced in vitro using human monocytic cell strain U937. The production amount of TNFα is determined by ELISA KIT of Genzyme Corporation.
Evaluation is carried out in accordance with the method of Daniel-Issakani, et al. (Journal of Biological Chemistry, 264, 20240-20247 (1989)).
By 10 ng/ml of LPS (lipopolysaccharide), about 1 ng of TNFα is produced per 10^5 cells of U937 during 6 hours (designated as a standard production amount: 100%).
In the presence of 10 ng/ml of LPS, the concentration of each of the compounds obtained in the Examples at which the production amount of TNFα is suppressed to 50% of the standard production amount is determined and it is expressed as ED50%.

SMILES | IC50 ([1]; U-937) | melting point | IC50 [1]
CCCCCCCCCCCCCC(=O)O[C@H](CCCCCCCCCCC)CCO[C@H]1[C@H](OP(=O)(O)O)[C@@H](CO)OC(OC[C@H]2O[C@H](C(=O)O)[C@H](NC(=O)C[C@H](O)CCCCCCCCCCC)[C@@H](OCC[C@H](O)CCCCCCCCCCC)[C@@H]2O)[C@@H]1NC(C)=O (stereo partly drawn) [Example 1, 2,6-Anhydro-7-O-[2-acetylamino-2-deoxy-4-O-phosphono-3-O-{(R)-3-tetradecanoyloxytetradecyl}-D-glucopyranosyl]-3-{(R)-3-hydroxytetradecanoylamino}-4-O-{(R)-3-hydroxytetradecyl}-3-deoxy-D-glycero-D-ido-heptonic Acid] | 11 nM | – | –
CCCCCCCCCCCCCC(=O)O[C@H](CCCCCCCCCCC)CCO[C@@H]1[C@@H](NC(C)=O)[C@H](OC[C@H]2O[C@H](C(=O)O)[C@H](NC(=O)C[C@H](O)CCCCCCCCCCC)[C@@H](OCC[C@H](O)CCCCCCCCCCC)[C@@H]2O)O[C@H](COC)[C@H]1OP(=O)(O)O [Example 2, 2,6-Anhydro-7-O-[2-acetylamino-2-deoxy-6-O-methyl-4-O-phosphono-3-O-{(R)-3-tetradecanoyloxytetradecyl}-β-D-glucopyranosyl]-3-{(R)-3-hydroxytetradecanoylamino}-4-O-{(R)-3-hydroxytetradecyl}-3-deoxy-D-glycero-D-ido-heptonic Acid] | 0.61 nM | – | –
CCCCCCCCCCCCO[C@H](CCCCCCCCCCC)CCO[C@@H]1[C@@H](NC(C)=O)[C@H](OC[C@H]2O[C@H](C(=O)O)[C@H](NC(=O)C[C@H](O)CCCCCCCCCCC)[C@@H](OCC[C@H](O)CCCCCCCCCCC)[C@@H]2O)O[C@H](COC)[C@H]1OP(=O)(O)O [Example 5, 2,6-Anhydro-7-O-[2-acetylamino-2-deoxy-3-O-{(R)-3-dodecyloxytetradecyl}-6-O-methyl-4-O-phosphono-β-D-glucopyranosyl]-3-{(R)-hydroxytetradecanoylamino}-4-O-{(R)-3-hydroxytetradecyl}-3-deoxy-D-glycero-D-ido-heptonic Acid] | – | – | 6.4 nM
CCCCCCCCCCCCO[C@H](CCCCCCCCCCC)CCO[C@@H]1[C@@H](NC(C)=O)[C@H](OC[C@H]2O[C@H](C(=O)O)[C@H](NC(=O)C[C@H](O)CCCCCCCCCCC)[C@@H](OCC[C@H](O)CCCCCCCCCCC)[C@@H]2O)O[C@H](CF)[C@H]1OP(=O)(O)O [Example 6] | – | – | 10 nM

Further lines, with some results ahead:

IC50 ([1]; U-937) | melting point | SMILES | IC50 [1]
1.2 nM | – | CCCCCCCCCCCCCC(=O)O[C@H](CCCCCCCCCCC)CCO[C@@H]1[C@@H](NC(C)=O)[C@H](OC[C@H]2O[C@H](C(=O)O)[C@H](NC(=O)C[C@H](O)CCCCCCCCCCC)[C@@H](OCC[C@H](O)CCCCCCCCCCC)[C@@H]2O)O[C@H](CF)[C@H]1OP(=O)(O)O [Example 3, 2,6-Anhydro-7-O-[2-acetylamino-2,6-dideoxy-6-fluoro-4-O-phosphono-3-O-{(R)-3-tetradecanoyloxytetradecyl}-β-D-glucopyranosyl]-3-{(R)-3-hydroxytetradecanoylamino}-4-O-{(R)-3-hydroxytetradecyl}-3-deoxy-D-glycero-D-ido-heptonic Acid] | –
11 nM | 179 to 181 °C | CCCCCCCCCCCCO[C@H](CCCCCCCCCCC)CCO[C@@H]1[C@@H](NC(C)=O)[C@H](OC[C@H]2O[C@H](C(=O)O)[C@H](NC(=O)C[C@H](O)CCCCCCCCCCC)[C@@H](OCC[C@H](O)CCCCCCCCCCC)[C@@H]2O)O[C@H](CO)[C@H]1OP(=O)(O)O [Example 4, 2,6-Anhydro-7-O-[2-acetylamino-2-deoxy-3-O-{(R)-3-dodecyloxytetradecyl}-4-O-phosphono-β-D-glucopyranosyl]-3-{(R)-3-hydroxytetradecanoylamino}-4-O-{(R)-3-hydroxytetradecyl}-3-deoxy-D-glycero-D-ido-heptonic Acid] | –

Reference: patent publication US6511965B2, “Ether type lipid A 1-carboxylic acid analogs” (Sankyo Company, Limited, priority 1999, dated 2003)
